Structures can show the parent of a compound that is named as a salt.
tested on: production of IgE antibody; assay: Evaluation of inhibitory effect on production of IgE antibody; type: cell-based; conditions: B-cell; test agent at a concentration of 10^−5 M; mouse (Balb/C) spleen B cells cultured with LPS then mouse IL-4; IgE in culture supernatant by ELISA
Protocol: Evaluation of Inhibitory Effect on Production of IgE Antibody
A spleen was enucleated from a mouse (Balb/C, male, aged 8 weeks) and shredded in 0.3% BSA/HBSS to prepare single cells by means of a 200-mesh screen. Further, the single cells were hemolyzed by 0.75% ammonium chloride-17 mM Tris solution to prepare a splenocyte suspension (1×10^7/ml) using RPMI 1640 medium/25 mM HPES/0.3% BSA. After the suspension was reacted with a mouse anti-mouse Thy-1.2 monoclonal antibody at 4° C. for 1 hour, the reaction mixture was centrifuged, and the sediment cells were suspended again (1×10^7/ml, RPMI/HPES/BAS). After the suspension was then reacted with a low-cytotoxic rabbit complement (product of Cedarlane Co.) at 37° C. for 1 hour, killed cells were removed by specific gravity centrifugation using lympholyte M (product of Cedarlane Co.) to obtain a B cell fraction as viably cells.
After B cells (10^5/0.2 ml/well) were cultured for a day together with LPS (E. coli 026:B6, product of DIFCO Co.) using a 96-well plate, mouse IL-4 (product of Genzyme Co.) was added to conduct culture further for 7 days.
Each test agent was added on the first day of the culture, and the amount of IgE in a culture supernatant was measured by ELISA, thereby calculating out the inhibitory effect of the agent on the production of an IgE antibody.

| SMILES | inhibition at 10 µM |
| --- | --- |
| COc1cc(/C=C/C=C/C(=O)N2CCCN(C(=O)/C=C/C=C/c3cc(OC)c(OC)c(OC)c3)CC2)cc(OC)c1OC [Example 17, 1,4-bis[5-(3,4,5-trimethoxyphenyl)-penta-(2E,4E)-dienoyl]hexahydro-1,4-diazepine] | 100% |
| O=C(/C=C/C=C/c1ccccc1)N1CCCN(C(=O)/C=C/C=C/c2ccccc2)CC1 [Example 1, 1,4-bis[5-phenylpenta-(2E,4E)-dienoyl]hexahydro-1,4-diazepine] | 100% |
| O=C(/C=C/C=C/c1ccccn1)N1CCCN(C(=O)/C=C/C=C/c2ccccn2)CC1 [Example 19, 1,4-bis[5-(2-pyridyl)penta-(2E,4E)-dienoyl]hexahydro-1,4-diazepine] | 20% |
| O=C(/C=C/C=C/c1cccc2cccnc12)N1CCCN(C(=O)/C=C/C=C/c2cccc3cccnc23)CC1 [Example 25, 1,4-bis[5-(8-quinolyl)penta-(2E,4E)-dienoyl]hexahydro-1,4-diazepine] | 100% |
| COc1cc(/C=C/C=C/C(=O)N2CCN(C(=O)/C=C/C=C/c3cc(OC)c(OC)c(OC)c3)C(CN(C)C)C2)cc(OC)c1OC (stereo not shown) [Example 36, 1,4-bis[5-(3,4,5-trimethoxyphenyl)-penta-(2E,4E)-dienoyl]-2-(N,N-dimethylaminomethyl)-piperazine hydrochloride] | 100% |
| COc1cc(/C=C/C=C/C(=O)N2CCN(C(=O)/C=C/C=C/c3cc(OC)c(OC)c(OC)c3)c3ncccc32)cc(OC)c1OC [Example 42, 1,4-bis[5-(3,4,5-trimethoxyphenyl)-penta-(2E,4E)-dienoyl]-pyrido[2,3-b]-1,2,3,4-tetrahydropyrazine] | 95% |
| COc1cc(/C=C/C=C/C(=O)N2CCN(C(=O)/C=C/C=C/c3cc(OC)c(OC)c(OC)c3)c3ccccc32)cc(OC)c1OC [Example 41, 1,4-bis[5-(3,4,5-trimethoxyphenyl)-penta-(2E,4E)-dienoyl]-1,2,3,4-tetrahydroquinoxaline] | 100% |
| COc1cc(/C=C/C=C/C(=O)N2CCN(C(=O)/C=C/C=C/c3cc(OC)c(OC)c(OC)c3)CC2)cc(OC)c1OC [Example 29, 1,4-bis[5-(3,4,5-trimethoxyphenyl)-penta-(2E,4E)-dienoyl]piperazine] | 100% |
| COc1cc(/C=C/C=C/C(=O)N2CCN(C(=O)/C=C/C=C/c3cc(OC)c(OC)c(OC)c3)C(C(=O)O)C2)cc(OC)c1OC (stereo not shown) [Example 34, 1,4-bis[5-(3,4,5-trimethoxyphenyl)-penta-(2E,4E)-dienoyl]piperazine-2-carboxylic acid] | 90% |
| O=C(/C=C/C=C/c1cccc2cccnc12)N1CCN(C(=O)/C=C/C=C/c2cccc3cccnc23)CC1 [Example 32, 1,4-bis[5-(8-quinolyl)penta-(2E,4E)-dienoyl]piperazine] | 85% |

Reference: patent publication US6828316B2, “Diamide compound and medicine containing the same” (Kowa Co., Ltd., priority 1996, dated 2004)
